Starred links: 1 amine or outer side, 2 acyl side, 3 side chain; linkers in the order of their positions; H or OH if unused. Non-standard residues stand in square brackets, D forms with d. Residues, ends and D or L forms follow the SMILES beside them. Groups on a side chain read outwards from the residue. *: point of attachment. C20 diacid = O=C(O)CCCCCCCCCCCCCCCCCCC(=O)*; C18 diacid = O=C(O)CCCCCCCCCCCCCCCCC(=O)*; γGlu = O=C(O)[C@H](CCC(=O)[*:2])N[*:1]; Aib = CC(C)(N)C(=O)O
Assay: PK measurements for half life assessment in pigs
Format: in vivo, pig
Conditions: male, large white, pig, plasma, sc, single subcutaneous injection, time from tmax to half of Cmax, typically mean of four animals
Procedure: Male large white pigs receive a single subcutaneous injection of the test compound at the start of study (0 hours). Repeated blood samples were taken from the pig over the proceeding 168 hours and plasma separated and stored at −20 to −80° C. Plasma concentration of the test compound was quantified using a radioimmunoassay or mass spectrum analysis. Time taken from tmax to half of Cmax was calculated and represents the half-life (t½) of the compound. Typically, the presented t½ is the mean of four separate animals.

| half-life | SMILES |
| --- | --- |
| 112 h | CC[C@H](C)[C@H](NC(=O)[C@H](Cc1ccccc1)NC(=O)[C@H](CCC(=O)O)NC(=O)[C@H](Cc1c[nH]cn1)NC(=O)[C@H](C)NC(=O)[C@H](CCCNC(=N)N)NC(=O)[C@H](CCCCN)NC(=O)[C@H](C)NC(=O)[C@H](CC(=O)O)NC(=O)[C@H](CC(C)C)NC(=O)[C@H](Cc1ccc(O)cc1)NC(=O)[C@H](CCCCN)NC(=O)[C@H](CO)NC(=O)[C@H](Cc1ccc(O)cc1)NC(=O)[C@H](CC(=O)O)NC(=O)[C@H](CO)NC(=O)[C@@H](NC(=O)[C@H](Cc1ccccc1)NC(=O)[C@@H](NC(=O)CNC(=O)[C@H](Cc1c[nH]cn1)NC(=O)C(C)(C)NC(=O)[C@@H](N)Cc1c[nH]cn1)[C@@H](C)O)[C@@H](C)O)C(=O)N[C@@H](CCC(=O)O)C(=O)N[C@@H](Cc1c[nH]c2ccccc12)C(=O)N[C@@H](CC(C)C)C(=O)N[C@@H](CC(C)C)C(=O)N[C@@H](CCC(N)=O)C(=O)N[C@@H](CO)C(=O)N[C@@H](Cc1c[nH]cn1)C(=O)N[C@@H](CCC(N)=O)C(=O)N[C@@H](CCC(N)=O)C(=O)N[C@@H](Cc1c[nH]cn1)C(=O)N[C@@H](CO)C(=O)N1CCC[C@H]1C(=O)N1CCC[C@H]1C(=O)N1CCC[C@H]1C(=O)N[C@@H](CCCCNC(=O)[C@H](CO)NC(=O)CNC(=O)CC[C@H](NC(=O)CCCCCCCCCCCCCCCCC(=O)O)C(=O)O)C(=O)O [Example 507] (H-H[Aib]HGTFTSDYSKYLDAKRAHEFIEWLLQSHQQHSPPPK([Ser-Gly-γGlu-C18 diacid])-OH) |
| 83 h | CC[C@H](C)[C@H](NC(=O)[C@H](Cc1ccccc1)NC(=O)[C@H](CCC(=O)O)NC(=O)[C@H](CCC(N)=O)NC(=O)[C@H](C)NC(=O)[C@H](CCCNC(=N)N)NC(=O)[C@H](CCCCN)NC(=O)[C@H](C)NC(=O)[C@H](CC(=O)O)NC(=O)[C@H](CC(C)C)NC(=O)[C@H](Cc1ccc(O)cc1)NC(=O)[C@H](CCCCN)NC(=O)[C@H](CO)NC(=O)[C@H](Cc1ccc(O)cc1)NC(=O)[C@H](CC(=O)O)NC(=O)[C@H](CO)NC(=O)[C@@H](NC(=O)[C@H](Cc1ccccc1)NC(=O)[C@@H](NC(=O)CNC(=O)[C@H](Cc1c[nH]cn1)NC(=O)C(C)(C)NC(=O)[C@@H](N)Cc1c[nH]cn1)[C@@H](C)O)[C@@H](C)O)C(=O)N[C@@H](CCC(=O)O)C(=O)N[C@@H](Cc1c[nH]c2ccccc12)C(=O)N[C@@H](CC(C)C)C(=O)N[C@@H](CC(C)C)C(=O)N[C@@H](CCC(N)=O)C(=O)N[C@@H](CO)C(=O)N[C@@H](Cc1c[nH]cn1)C(=O)N[C@@H](CCC(N)=O)C(=O)N[C@@H](Cc1c[nH]cn1)C(=O)N1CCC[C@H]1C(=O)N[C@@H](CO)C(=O)N1CCC[C@H]1C(=O)N1CCC[C@H]1C(=O)N1CCC[C@H]1C(=O)N[C@@H](CCCCNC(=O)CC[C@H](NC(=O)CCCCCCCCCCCCCCCCCCC(=O)O)C(=O)O)C(=O)O [Example 544] (H-H[Aib]HGTFTSDYSKYLDAKRAQEFIEWLLQSHQHPSPPPK([γGlu-C20 diacid])-OH) |
| 110 h | CC[C@H](C)[C@H](NC(=O)[C@H](Cc1ccccc1)NC(=O)[C@H](CCC(=O)O)NC(=O)[C@H](CCC(N)=O)NC(=O)[C@H](C)NC(=O)[C@H](CCCNC(=N)N)NC(=O)[C@H](CCCCN)NC(=O)[C@H](C)NC(=O)[C@H](CC(=O)O)NC(=O)[C@H](CC(C)C)NC(=O)[C@H](Cc1ccc(O)cc1)NC(=O)[C@H](CCCCN)NC(=O)[C@H](CO)NC(=O)[C@H](Cc1ccc(O)cc1)NC(=O)[C@H](CC(=O)O)NC(=O)[C@H](CO)NC(=O)[C@@H](NC(=O)[C@H](Cc1ccccc1)NC(=O)[C@@H](NC(=O)CNC(=O)[C@H](Cc1c[nH]cn1)NC(=O)C(C)(C)NC(=O)[C@@H](N)Cc1c[nH]cn1)[C@@H](C)O)[C@@H](C)O)C(=O)N[C@@H](CCC(=O)O)C(=O)N[C@@H](Cc1c[nH]c2ccccc12)C(=O)N[C@@H](CC(C)C)C(=O)N[C@@H](CC(C)C)C(=O)N[C@@H](CCC(N)=O)C(=O)N[C@@H](CO)C(=O)N[C@@H](Cc1c[nH]cn1)C(=O)N[C@@H](Cc1c[nH]cn1)C(=O)N[C@@H](CCC(N)=O)C(=O)N[C@@H](CCC(N)=O)C(=O)N[C@@H](Cc1c[nH]cn1)C(=O)N[C@@H](CCC(=O)O)C(=O)N[C@@H](CO)C(=O)N1CCC[C@H]1C(=O)N1CCC[C@H]1C(=O)N1CCC[C@H]1C(=O)N[C@@H](CCCCNC(=O)[C@H](CC(N)=O)NC(=O)CC[C@H](NC(=O)CCCCCCCCCCCCCCCCCCC(=O)O)C(=O)O)C(=O)O [Example 549] (H-H[Aib]HGTFTSDYSKYLDAKRAQEFIEWLLQSHHQQHESPPPK([Asn-γGlu-C20 diacid])-OH) |
| 84 h | CC[C@H](C)[C@H](NC(=O)[C@H](Cc1ccccc1)NC(=O)[C@H](CCC(=O)O)NC(=O)[C@H](Cc1c[nH]cn1)NC(=O)[C@H](C)NC(=O)[C@H](CCCNC(=N)N)NC(=O)[C@H](CCCCN)NC(=O)[C@H](C)NC(=O)[C@H](CC(=O)O)NC(=O)[C@H](CC(C)C)NC(=O)[C@H](Cc1ccc(O)cc1)NC(=O)[C@H](CCCCN)NC(=O)[C@H](CO)NC(=O)[C@H](Cc1ccc(O)cc1)NC(=O)[C@H](CC(=O)O)NC(=O)[C@H](CO)NC(=O)[C@@H](NC(=O)[C@H](Cc1ccccc1)NC(=O)[C@@H](NC(=O)CNC(=O)[C@H](Cc1c[nH]cn1)NC(=O)C(C)(C)NC(=O)[C@@H](N)Cc1c[nH]cn1)[C@@H](C)O)[C@@H](C)O)C(=O)N[C@@H](CCC(=O)O)C(=O)N[C@@H](Cc1c[nH]c2ccccc12)C(=O)N[C@@H](CC(C)C)C(=O)N[C@@H](CC(C)C)C(=O)N[C@@H](CCC(N)=O)C(=O)N[C@@H](CO)C(=O)N[C@@H](Cc1c[nH]cn1)C(=O)N[C@@H](CCC(N)=O)C(=O)N[C@@H](CCC(N)=O)C(=O)N[C@@H](Cc1c[nH]cn1)C(=O)N[C@@H](CCC(=O)O)C(=O)N[C@@H](CO)C(=O)N1CCC[C@H]1C(=O)N1CCC[C@H]1C(=O)N1CCC[C@H]1C(=O)N[C@@H](CCCCNC(=O)[C@H](CO)NC(=O)CNC(=O)CC[C@H](NC(=O)CCCCCCCCCCCCCCCCC(=O)O)C(=O)O)C(=O)O [Example 587] (H-H[Aib]HGTFTSDYSKYLDAKRAHEFIEWLLQSHQQHESPPPK([Ser-Gly-γGlu-C18 diacid])-OH) |
| 65 h | CC[C@H](C)[C@H](NC(=O)[C@H](Cc1ccccc1)NC(=O)[C@H](CCC(=O)O)NC(=O)[C@H](Cc1c[nH]cn1)NC(=O)[C@H](C)NC(=O)[C@H](CCCNC(=N)N)NC(=O)[C@H](CCCCN)NC(=O)[C@H](C)NC(=O)[C@H](CC(=O)O)NC(=O)[C@H](CC(C)C)NC(=O)[C@H](Cc1ccc(O)cc1)NC(=O)[C@H](CCCCN)NC(=O)[C@H](CO)NC(=O)[C@H](Cc1ccc(O)cc1)NC(=O)[C@H](CC(=O)O)NC(=O)[C@H](CO)NC(=O)[C@@H](NC(=O)[C@H](Cc1ccccc1)NC(=O)[C@@H](NC(=O)CNC(=O)[C@H](Cc1c[nH]cn1)NC(=O)C(C)(C)NC(=O)[C@@H](N)Cc1c[nH]cn1)[C@@H](C)O)[C@@H](C)O)C(=O)N[C@@H](CCC(=O)O)C(=O)N[C@@H](Cc1c[nH]c2ccccc12)C(=O)N[C@@H](CC(C)C)C(=O)N[C@@H](CC(C)C)C(=O)N[C@@H](CCC(N)=O)C(=O)N[C@@H](CO)C(=O)N[C@@H](Cc1c[nH]cn1)C(=O)N[C@@H](CCC(N)=O)C(=O)N[C@@H](CCC(N)=O)C(=O)N[C@@H](Cc1c[nH]cn1)C(=O)N[C@@H](CCC(=O)O)C(=O)N[C@@H](CO)C(=O)N1CCC[C@H]1C(=O)N1CCC[C@H]1C(=O)N1CCC[C@H]1C(=O)N[C@@H](CCCCNC(=O)CC[C@H](NC(=O)CCCCCCCCCCCCCCCCCCC(=O)O)C(=O)O)C(=O)O [Example 588] (H-H[Aib]HGTFTSDYSKYLDAKRAHEFIEWLLQSHQQHESPPPK([γGlu-C20 diacid])-OH) |
